In ChEMBL document CHEMBL3259515, “Further studies on ethyl 5-hydroxy-indole-3-carboxylate scaffold: design, synthesis and evaluation of 2-phenylthiomethyl-indole derivatives as efficient inhibitors of human 5-lipoxygenase” (Eur J Med Chem, 2014):
Active and inactive are the calls of the source. The rule behind the calls is not given here.

Assays:
[1] = biological target: T1, Polyunsaturated fatty acid 5-lipoxygenase (Homo sapiens, UniProt P09917); test: Inhibition of 5-LO in human polymorphonuclear leukocytes assessed as inhibition of LTB4 production from arachidonic acid preincubated for 15 mins by HPLC analysis; format: cell-based
T1 sequence (P09917 whole entry): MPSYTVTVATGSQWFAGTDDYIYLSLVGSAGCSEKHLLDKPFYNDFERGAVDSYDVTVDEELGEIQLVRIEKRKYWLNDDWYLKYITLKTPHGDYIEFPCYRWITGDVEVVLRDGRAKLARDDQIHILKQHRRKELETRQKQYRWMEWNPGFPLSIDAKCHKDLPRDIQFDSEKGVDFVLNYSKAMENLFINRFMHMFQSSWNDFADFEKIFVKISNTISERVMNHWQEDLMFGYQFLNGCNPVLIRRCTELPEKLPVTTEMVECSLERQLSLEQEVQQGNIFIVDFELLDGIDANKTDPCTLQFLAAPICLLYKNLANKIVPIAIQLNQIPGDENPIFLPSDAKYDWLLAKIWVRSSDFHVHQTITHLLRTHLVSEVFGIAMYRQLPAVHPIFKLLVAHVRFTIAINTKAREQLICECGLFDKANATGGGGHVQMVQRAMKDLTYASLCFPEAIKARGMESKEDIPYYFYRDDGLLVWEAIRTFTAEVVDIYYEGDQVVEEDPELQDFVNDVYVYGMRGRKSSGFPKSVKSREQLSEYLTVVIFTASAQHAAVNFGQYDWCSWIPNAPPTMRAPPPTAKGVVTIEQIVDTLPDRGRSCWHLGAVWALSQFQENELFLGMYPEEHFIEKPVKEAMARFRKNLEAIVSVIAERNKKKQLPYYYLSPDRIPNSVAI

[2] = biological target: T1, Polyunsaturated fatty acid 5-lipoxygenase; test: Inhibition of human recombinant 5-LO expressed in Escherichia coli BL21 using arachidonic acid as substrate preincubated for 5 to 10 mins by HPLC analysis
[3] = biological target: T2, Polyunsaturated fatty acid lipoxygenase ALOX15 (Homo sapiens) (UniProt P16050); test: Inhibition of 15-LO-mediated 15-H(P)ETE production in human polymorphonuclear leukocytes assessed as remaining activity preincubated at 10 uM for 15 mins by HPLC analysis; format: cell-based
T2 sequence (whole entry): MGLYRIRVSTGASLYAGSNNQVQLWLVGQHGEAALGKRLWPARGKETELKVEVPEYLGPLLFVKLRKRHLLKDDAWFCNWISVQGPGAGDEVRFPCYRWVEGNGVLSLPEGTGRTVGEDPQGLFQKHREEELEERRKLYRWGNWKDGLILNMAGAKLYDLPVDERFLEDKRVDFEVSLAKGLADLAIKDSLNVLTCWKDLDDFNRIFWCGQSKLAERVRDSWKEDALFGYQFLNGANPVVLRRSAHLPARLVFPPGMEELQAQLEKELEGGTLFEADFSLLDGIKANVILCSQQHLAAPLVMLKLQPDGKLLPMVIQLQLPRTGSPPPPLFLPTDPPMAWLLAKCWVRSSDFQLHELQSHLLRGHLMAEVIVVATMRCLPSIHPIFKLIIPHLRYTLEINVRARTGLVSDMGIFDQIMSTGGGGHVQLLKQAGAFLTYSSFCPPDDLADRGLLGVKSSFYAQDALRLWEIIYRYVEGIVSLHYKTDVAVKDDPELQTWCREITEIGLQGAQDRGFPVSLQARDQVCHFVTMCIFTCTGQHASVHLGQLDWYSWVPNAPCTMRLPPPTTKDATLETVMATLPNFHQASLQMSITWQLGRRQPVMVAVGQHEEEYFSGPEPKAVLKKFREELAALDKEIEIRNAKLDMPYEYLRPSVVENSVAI

[4] = biological target: T3, Polyunsaturated fatty acid lipoxygenase ALOX12 (Homo sapiens) (UniProt P18054); test: Inhibition of 12-LO-mediated 12-H(P)ETE production in human polymorphonuclear leukocytes assessed as remaining activity preincubated at 10 uM for 15 mins by HPLC analysis; format: cell-based
T3 sequence (whole entry): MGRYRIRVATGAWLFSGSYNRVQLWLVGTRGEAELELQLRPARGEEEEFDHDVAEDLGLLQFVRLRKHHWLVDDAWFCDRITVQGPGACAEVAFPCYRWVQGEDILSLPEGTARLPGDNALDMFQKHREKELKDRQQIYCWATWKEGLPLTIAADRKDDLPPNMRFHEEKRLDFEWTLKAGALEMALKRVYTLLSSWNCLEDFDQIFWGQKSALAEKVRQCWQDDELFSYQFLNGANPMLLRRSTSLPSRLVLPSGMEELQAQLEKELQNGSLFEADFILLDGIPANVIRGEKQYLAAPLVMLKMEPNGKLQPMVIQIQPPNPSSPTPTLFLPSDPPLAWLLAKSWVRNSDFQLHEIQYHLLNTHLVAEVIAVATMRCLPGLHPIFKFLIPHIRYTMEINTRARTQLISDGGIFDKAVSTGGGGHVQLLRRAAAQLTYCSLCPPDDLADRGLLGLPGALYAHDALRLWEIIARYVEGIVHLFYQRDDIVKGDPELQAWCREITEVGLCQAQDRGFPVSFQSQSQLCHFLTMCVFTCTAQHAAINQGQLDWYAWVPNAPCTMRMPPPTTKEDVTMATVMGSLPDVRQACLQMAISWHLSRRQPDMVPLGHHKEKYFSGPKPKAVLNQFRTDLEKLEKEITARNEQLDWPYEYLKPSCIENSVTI

[5] = biological target: T4, Prostaglandin G/H synthase 1 (Ovis aries) (UniProt P05979); test: Inhibition of purified ovine COX1 preincubated for 5 mins by HPLC analysis
T4 sequence (whole entry): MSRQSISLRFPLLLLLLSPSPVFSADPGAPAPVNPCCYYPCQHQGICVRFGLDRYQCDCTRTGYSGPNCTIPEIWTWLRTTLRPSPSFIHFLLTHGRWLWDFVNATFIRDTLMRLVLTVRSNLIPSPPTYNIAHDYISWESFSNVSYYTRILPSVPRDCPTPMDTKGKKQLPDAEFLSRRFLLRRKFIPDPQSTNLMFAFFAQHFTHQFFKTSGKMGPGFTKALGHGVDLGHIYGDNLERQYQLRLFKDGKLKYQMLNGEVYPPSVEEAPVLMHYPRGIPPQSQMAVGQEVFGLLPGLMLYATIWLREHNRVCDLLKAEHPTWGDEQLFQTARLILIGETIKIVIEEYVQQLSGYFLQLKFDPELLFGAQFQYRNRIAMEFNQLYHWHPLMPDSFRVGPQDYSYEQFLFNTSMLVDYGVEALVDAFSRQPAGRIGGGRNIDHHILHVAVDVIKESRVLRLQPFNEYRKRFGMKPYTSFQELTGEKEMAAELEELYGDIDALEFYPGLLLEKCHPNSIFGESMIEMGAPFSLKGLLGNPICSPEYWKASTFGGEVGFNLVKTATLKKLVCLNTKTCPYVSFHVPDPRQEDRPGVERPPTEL

[6] = biological target: T5, Prostaglandin G/H synthase 2 (Homo sapiens) (UniProt P35354); test: Inhibition of human recombinant COX2 preincubated for 5 mins by HPLC analysis
T5 sequence (whole entry): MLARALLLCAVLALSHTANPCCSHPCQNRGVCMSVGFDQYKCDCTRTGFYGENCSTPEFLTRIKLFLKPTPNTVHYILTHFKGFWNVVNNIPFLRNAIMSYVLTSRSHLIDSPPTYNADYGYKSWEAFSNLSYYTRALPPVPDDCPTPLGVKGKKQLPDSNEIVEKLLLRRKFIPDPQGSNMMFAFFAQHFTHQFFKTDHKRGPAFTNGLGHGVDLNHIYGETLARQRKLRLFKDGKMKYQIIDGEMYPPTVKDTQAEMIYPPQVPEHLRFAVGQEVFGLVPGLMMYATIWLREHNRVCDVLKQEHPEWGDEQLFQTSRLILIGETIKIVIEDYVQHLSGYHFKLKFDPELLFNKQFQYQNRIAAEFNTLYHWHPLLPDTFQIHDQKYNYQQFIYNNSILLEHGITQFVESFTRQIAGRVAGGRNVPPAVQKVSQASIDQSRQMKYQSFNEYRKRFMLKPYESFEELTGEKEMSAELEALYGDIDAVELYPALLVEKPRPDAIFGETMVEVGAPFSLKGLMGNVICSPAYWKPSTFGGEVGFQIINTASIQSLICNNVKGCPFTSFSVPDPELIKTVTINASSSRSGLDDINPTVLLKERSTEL

[7] = biological target: T6, Polyunsaturated fatty acid lipoxygenase ALOX15 (Homo sapiens, UniProt P16050); test: Inhibition of 15-LO in human polymorphonuclear leukocytes assessed as inhibition of 15-H(P)ETE production from arachidonic acid preincubated for 15 mins by HPLC analysis; format: cell-based
T6 sequence (P16050 whole entry): T2 sequence (whole entry)

Compound	IC50 [1] [µM]	IC50 [2] [µM]	Activity [3] [%]	Activity [4] [%]	inhibition [5]	inhibition [6]	IC50 [7] [µM]
CCOC(=O)c1c(CSc2c(C)cccc2C)n(C)c2ccc(O)cc12	1.2	0.8	125	94.1			
CCOC(=O)c1c(CSc2c(Cl)cccc2Cl)n(C)c2ccc(O)cc12	0.9	0.8	136	103	inactive	inactive	
CCOC(=O)c1c(CSc2ccc(F)cc2)n(C)c2ccc(O)cc12	9.1	5	120	100			
CCOC(=O)c1c(CSc2ccc(C(F)(F)F)cc2)n(C)c2ccc(O)cc12	> 10	4.2	114	102			
CCOC(=O)c1c(CSc2c(C)cc(C)cc2C)n(C)c2ccc(O)cc12	0.23	0.7	33	86.5	inactive	inactive	8.2
CCOC(=O)c1c(CSc2cccc(Cl)c2)n(C)c2ccc(O)cc12	> 10	3.8	114	92.9			
CCOC(=O)c1c(CSc2ccc(F)cc2F)n(C)c2ccc(O)cc12	6.8	3.2	102	91.4			
N#C/C(=C\c1ccc(O)c(O)c1)C(=O)OC/C=C/c1ccccc1			11.1	5.6			

Results, then the compound that gave them:

IC50 [1] [µM]	IC50 [2] [µM]	Activity [3] [%]	Activity [4] [%]	inhibition [5]	inhibition [6]	IC50 [7] [µM]	Compound
5.1	2.9	136	108				CCOC(=O)c1c(CSc2ccccc2OC)n(C)c2ccc(O)cc12
1.2	0.8	126	104				CCOC(=O)c1c(CSc2ccccc2C(F)(F)F)n(C)c2ccc(O)cc12
2.4	5.7	130	92.4				CCOC(=O)c1c(CSc2ccccc2)n(C)c2ccc(O)cc12
3.1	2.3	128	92.1				CCOC(=O)c1c(CSc2ccc(OC)cc2)n(C)c2ccc(O)cc12
2.1	0.9	107	94.1				CCOC(=O)c1c(CSc2ccc(OC(F)(F)F)cc2)n(C)c2ccc(O)cc12
2.7	1.8	150	107				CCOC(=O)c1c(CSc2cc(C)cc(C)c2)n(C)c2ccc(O)cc12
